Data: patent US20240033256A1, “INHIBITORS OF POSITIVE STRAND RNA VIRUSES” (priority 2020, published 2024)
Like-named read-outs stand apart in the source and are kept apart here.

Legend:
[1] = Vero E6 cell viability by MTS (Dengue study); type: cell-based; details: African green monkey, Vero E6 cells
Description: (§1) Vero E6 cells (BCRC #60476, Bioresource Collection and Research Center, Hsinchu, Taiwan) were treated with one of Compounds 1-9 at a predetermined concentration for 1 hour at 37° C. The cells were infected with Dengue virus type 1 (“DV1”, ATCC VR-1856, American Type Culture Collection, Manassas, VA, USA) at MOI=0.002 or Dengue virus type 2 (“DV2”, ATCC VR-1584, American Type Culture Collection, Manassas, VA, USA) at MOI=0.02, both for 5 days at 33° C. They were then fixed with 10% formalin and permeabilized with methanol. Subsequently, the cells were stained with anti-flavivirus E antibody (ATCC HB-112, American Type Culture Collection, Manassas, VA, USA) and anti-mouse IgG-FITC (MP Biomedicals, Irvine, CA, USA). The nuclei of the cells were counter stained with DAPI (Thermo Fisher Scientific, MA, USA). The E protein expression was measured by using a high-content image analysis system (Molecular Devices). The cell viability was determined by MTS. EC50 and CC50 were calculated by Prism software.

Dengue virus type 1 = Dengue virus type 1 IFA assay (E protein) in Vero E6 cells; type: cell-based; details: MOI 0.002, 5 days at 33° C, read-out: DV1 EC50
Description: (§2) Compounds 1-9 were evaluated for their inhibitory activities against Dengue virus, another single positive-stranded RNA virus belonging to genus of flavivirus, using an IFA assay that targeted the Dengue virus Envelope (“E”) protein.
as §1

Dengue virus type 2 = Dengue virus type 2 IFA assay (E protein) in Vero E6 cells; type: cell-based; details: MOI 0.02, 5 days at 33° C, read-out: DV2 EC50
Description: as §2, §1

[2] = Vero E6 cell viability by MTS (Zika study); type: cell-based; details: African green monkey, Vero E6 cells
Description: (§3) Vero E6 cells (BCRC #60476, Bioresource Collection and Research Center, Hsinchu, Taiwan) were treated with one of Compounds 1-9 at a predetermined concentration for 1 hour at 37° C. The cells were adsorbed with Zika virus (ATCC VR-1843, American Type Culture Collection, Manassas, VA, USA) at MOI=0.02 for 49 hours at 37° C. The cells were fixed with 10% formalin, permeabilized with methanol. The cells were stained with anti-flavivirus E antibody (ATCC HB-112, American Type Culture Collection, Manassas, VA, USA) and anti-mouse IgG-FITC (MP Biomedicals, Irvine, CA, USA). The nuclei were counter stained with DAPI (in blue) (Thermo Fisher Scientific, MA, USA). The E protein expression was measured using a high-content image analysis system (Molecular Devices). The cell viability was determined by MTS. Both EC50 and CC50 were calculated by Prism software.
(§4) Their cytotoxic effects were also determined by the MTS assay described above using Vero E6 cells.

Zika virus = Zika virus IFA assay (E protein) in Vero E6 cells; type: cell-based; details: read-out: EC50 (Zika virus)
Description: Compounds 1-9 were evaluated for their inhibitory activities against Zika virus using an IFA assay, which targeted Zika virus Envelope (“E”) protein.
as §3

Vero E6 cells [3] = assay: Vero E6 cell viability by MTS (Dengue study); type: cell-based
Description: as §1

Vero E6 cells [4] = assay: Vero E6 cell viability by MTS (Zika study); type: cell-based
Description: as §3, §4

[5] = HCT-8 cell viability (MTS); details: human, HCT-8 cells
SARS-CoV-2 [6] = assay: SARS-CoV-2 cytopathic effect (CPE) by visualization in infected Vero E6 cells; type: cell-based; details: Severe acute respiratory syndrome coronavirus 2, Vero C1008, read-out: SARS-CoV-2 inhibition EC50, CPE
Description: Compounds 1-3 were examined for their inhibitory activity against SARS-CoV-2 in Vero E6 cells. Cytopathic effects (“CPE”) of SARS-CoV-2 infected Vero E6 cells, with treatment of compounds in 2-fold dilution at a series of 12 concentrations, were visualized. EC50 and CC50 values were calculated.

HCoV-229E = HCoV-229E cytopathic effect / end point assay by TCID50 with crystal violet in MRC5 cells; details: Human coronavirus 229E, MRC5, read-out: EC50 (HCoV-229E)
Description: An end point assay by TCID50 was performed. Crystal violet was used to stain live cells to determine the EC50 of each compound. Further, CC50 and selective index were calculated.

HCoV-OC43 = HCoV-OC43 IFA assay (N protein) in HCT-8 cells; type: cell-based
SARS-CoV-2 [7] = assay: SARS-CoV-2 immunofluorescence assay (IFA), N protein expression in Vero E6 cells; type: cell-based
Description: Vero E6 cells derived from BCRC #60476 (Bioresource Collection and Research Center, Hsinchu, Taiwan) were treated with each compound at an indicated concentration for 1 hour at 37° C. The cells were adsorbed with SARS-CoV-2 viruses (TCDC #4, National Taiwan University, Taipei, Taiwan, ROC) at multiplicity of infection (“MOI”) of 0.01 for 1 hour at 37° C. After virus adsorption, the cells were washed with phosphate-buffered saline (“PBS”). A fresh medium containing the compound was added at an indicated concentration. The resultant mixture was incubated for 2 days. The cells were fixed with 4% paraformaldehyde and permeabilized with a 0.5% Triton™ X-100 detergent solution (Thermo Fisher Scientific, Waltham, MA). Subsequently, they were stained with an anti-SARS-CoV-2 N protein antibody and anti-human IgG-488 (in green). The nuclei of the cells were counter stained with 4′,6-diamidino-2-phenylindole (“DAPI”, Thermo Fisher Scientific, MA, USA). The N protein expression was measured using a high-content image analysis system (Molecular Devices, San Jose, CA). The cell viability was determined by Cell Counting Kit-8 (Sigma-Aldrich, St. Louis, MO) EC50 and CC50 values were calculated by Prism software. […] Both EC50 and CC50 are measured in molar units, e.g., mol/L (“M”), μmol/L (“μM”), and nmol/L (“nM”).

SARS-CoV-2 [8] = assay: SARS-CoV-2 plaque assay in Vero E6 cells; type: cell-based; details: Severe acute respiratory syndrome coronavirus 2, Vero C1008
Description: The assay was performed in triplicate in 24-well tissue culture plates. Vero E6 cells were seeded in Dulbecco's modified Eagle's medium (“DMEM”) with 10% Fetal Bovine Serum (“FBS”, Biological Industries, Kibbutz, Israel) and antibiotics one day before infection. SARS-CoV-2 viruses were added to the cell monolayer and allowed to sit for 1 hour at 37° C. After viruses were removed, the cell monolayer was washed once with PBS before covering with media containing agarose or methylcellulose for 5-7 days. The cells were fixed with 3.7% formaldehyde overnight followed by removal of overlay media. They were then stained with crystal violet to count the plaque-forming units (“PFU”). The percentage of inhibition was calculated as [1−(VD/VC)]×100%, where VD and VC refer to the virus titer in the presence and absence of a test compound, respectively.

[9] = Vero E6 cells, MOI 0.02, 49 hours
[10] = Dengue virus, Vero C1008, 120 h
[11] = Severe acute respiratory syndrome coronavirus 2, Vero C1008, 48 h, Vero E6 cells, MOI 0.01, 2 days, run 1, read-out: SARS-CoV-2 inhibition EC50, IFA-1
[12] = Severe acute respiratory syndrome coronavirus 2, Vero C1008, 48 h, Vero E6 cells, MOI 0.01, 2 days, run 2, read-out: SARS-CoV-2 inhibition EC50, IFA-2
[13] = Severe acute respiratory syndrome coronavirus 2, Vero C1008, IFA, range over Compounds 1, 2 and 3, read-out: EC50 against SARS-CoV-2 (range given)
[14] = Betacoronavirus 1, OC43, HCT-8 cells, MOI 0.05, means ± S.D. from three independent experiments, read-out: EC50 (HCoV-OC43)
[15] = Zika virus, Vero C1008, 49 h, Vero E6 cells, MOI 0.02, 49 hours

Row | Compound | CC50 [1] [µM] | CC50 [2] [µM] | CC50 [5] [µM] | EC50 (Dengue virus type 1; [10]) [µM] | EC50 (SARS-CoV-2 [6]) [µM] | EC50 (HCoV-229E) [µM] | EC50 (Dengue virus type 2; [10]) [µM] | EC50 (SARS-CoV-2 [7]; [11]) [µM] | EC50 (SARS-CoV-2 [7]; [12]) [µM] | EC50 (SARS-CoV-2 [7]; [13]) [µM] | EC50 (HCoV-OC43; [14]) [µM] | EC50 (Zika virus; [15]) [µM] | further results
1 | CCN1Cc2c(c3cc(OC)c(OC)cc3c3cc(OC)c(OC)cc23)C(O)C1 (single isomer, unassigned) [Compound 7] | > 5 | > 5 | – | – | – | – | – | – | – | – | – | – | EC50 (Dengue virus type 1): 0.0731 µM; EC50 (Dengue virus type 2): 0.124 µM; EC50 (Zika virus; [9]): 0.0444 µM
2 | CCN1Cc2c(c3cc(OC)c(OC)cc3c3cc(OC)c(OC)cc23)C(O)C1 (single isomer, unassigned) [Compound 9] | – | – | – | – | – | – | – | – | – | – | – | – | CC50 (Vero E6 cells [3]): > 5 µM; EC50 (Dengue virus type 1): 0.296 µM; EC50 (Dengue virus type 2): 0.616 µM; CC50 (Vero E6 cells [4]): > 5 µM; EC50 (Zika virus; [9]): 0.144 µM
3 | COc1cc2c3c(c4cc(OC)c(OC)cc4c2cc1OC)CN1CCC[C@H]1C3 [Compound 1, (13as)-2,3,6,7-tetramethoxy-9,11,12,13,13a,14-hexahydrophenanthro[9,10-f] indolizine] | > 5 | > 5 | > 10 | 0.0184 | 0.078 | 0.0714 ± 0.0132 | 0.0325 | 0.064 | 0.0768 | 0.009 to 0.077 | – | – | EC50 (HCoV-OC43; Betacoronavirus 1, OC43, HCT-8, read-out: EC50 (HCoV-OC43)): 0.068 ± 0.0027 µM; EC50 (Zika virus; Zika virus, Vero C1008, 49 h): 0.0614 µM
4 | CCN1Cc2c(c3ccc(OC)cc3c3cc(OC)c(OC)cc23)C(O)C1 (stereo not drawn) [Compound 2] | > 5 | > 5 | > 10 | 0.0043 | 0.0025 | 0.0065 ± 0.001 | 0.0047 | 0.0091 | 0.0139 | 0.009 to 0.077 | 0.0164 ± 0.0047 | 0.0153 | EC50 (SARS-CoV-2 [8]; Vero E6 cells, run 1, read-out: SARS-CoV-2 inhibition EC50, Plaque assay-1): 0.0108 µM; EC50 (SARS-CoV-2 [8]; Vero E6 cells, run 2, read-out: SARS-CoV-2 inhibition EC50, Plaque assay-2): 0.0138 µM; EC50 (SARS-CoV-2 [8]; infected Vero E6 cells, four measurements, read-out: EC50 against SARS-CoV-2, plaque assay, all four measurements): 0.011 to 0.014 µM
5 | CCN1Cc2c(c3ccc(OC)cc3c3cc(OC)c(OC)cc23)C(O)C1C (stereo not drawn) [Compound 3] | > 5 | > 5 | > 10 | 0.0196 | 0.02 | 0.0254 ± 0.0031 | 0.029 | 0.0316 | 0.0319 | 0.009 to 0.077 | 0.0559 ± 0.0062 | 0.0159 | –
6 | COc1cc2c3c(c4cc(OC)c(OC)cc4c2cc1OC)CN1CCCCC1C3 (stereo not drawn) [Compound 4] | > 5 | > 5 | > 10 | 0.0076 | – | – | 0.0083 | – | – | – | 0.0517 ± 0.0061 | 0.0133 | –
7 | CCN1CCc2c(c3cc(OC)c(OC)cc3c3cc(OC)ccc23)C1 [Compound 5] | > 5 | > 5 | > 10 | 0.131 | – | – | 0.286 | – | – | – | – | 0.156 | –
8 | COc1cc2c3c(c4cc(OC)c(OC)cc4c2cc1OC)C[N+]1([O-])CCCC1C3 (stereo not drawn) [Compound 6] | > 5 | > 5 | > 10 | 1.64 | – | – | 2.64 | – | – | – | 1.89 ± 0.228 | 1.04 | Selectivity index (HCoV-OC43) (HCoV-OC43; CC50/EC50, HCT-8 cells): >5.3
9 | CCCN1Cc2c(c3cc(OC)c(OC)cc3c3cc(OC)c(OC)cc23)C(O)C1 (stereo not drawn) [Compound 8] | > 5 | > 5 | – | 0.247 | – | – | 0.617 | – | – | – | – | 0.304 | –
